Data from patent publication US8420823B2, “Long-chain fatty acyl elongase inhibitor comprising arylsulfonyl derivative as active ingredient” (MSD K.K., priority 2008, dated 2013).

molecular target: T1, human LCE (Homo sapiens, UniProt Q9H5J4); assay: LCE enzyme activity-inhibitory test; assay type: biochemical; details: [14C]-malonyl CoA / palmitoyl CoA substrate, 37° C., 90 minutes
T1 sequence (Q9H5J4 1-265): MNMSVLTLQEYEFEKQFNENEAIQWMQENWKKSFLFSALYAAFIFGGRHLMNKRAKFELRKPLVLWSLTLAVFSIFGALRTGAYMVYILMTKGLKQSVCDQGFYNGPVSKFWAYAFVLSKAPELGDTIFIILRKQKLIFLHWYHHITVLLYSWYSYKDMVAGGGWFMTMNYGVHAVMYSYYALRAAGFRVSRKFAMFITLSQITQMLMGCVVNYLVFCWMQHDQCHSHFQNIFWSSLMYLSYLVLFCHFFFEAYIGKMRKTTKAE
Experimental: Pharmacological Test Example 1 (LCE Enzyme Activity-inhibitory Test)
A test compound was dissolved in dimethyl sulfoxide (DMSO to be 10 mM), and then diluted with DMSO to prepare a 1000-fold concentrated solution of the test concentration. An improved Moon et al's method (J. Biol. Chem., Vol. 276, pp. 45358-45366, 2001) was employed for the LCE enzyme activity-inhibitor test. Concretely, the diluted compound was applied to a 96-well assay plate (Corning, 96-well assay block) in an amount of 1.0 μL/well; 50 μL of a phosphate buffer solution (100 mM potassium phosphate buffer, pH 6.5), and 25 μL of a substrate solution (100 mM potassium phosphate buffer (pH 6.5), 4.0 μM rotenone, 80 μM fatty acid-free bovine serum albumin, 160 μM palmitoyl CoA, 80 μM malonyl CoA, 3.5 μM [^14C]-malonyl CoA (1.92 GBq/mmol, by Amersham)) were added to each well; 25 μL of an enzyme solution (100 mM potassium phosphate buffer (pH 6.5), 100 μg/mL human LCE) was added thereto; the top of the plate was airtightly sealed up; and this was incubated with gently shaking and stirring at 37° C. for 90 minutes. Next, 100 μL of 5 M hydrochloric acid was added to each well, and the assay plate was stirred at room temperature for 5 minutes to stop the enzyme reaction with hydrolyzing the acyl CoA. Next, the enzyme reaction solution in each well was adsorbed by each well of a 96-well GF/C filter plate (Perkin Elmer Unifilter 96 GF/C); the individual wells were washed with water to remove the non-adsorbed malonyl CoA; and the GF/C filter plate was dried at 50° C. for 60 minutes. Next, 30 μL of a scintillator (Perkin Elmer Microscinti 0) was added to each well; then the top of the plate was sealed up; and the fixed [^14C] radioactivity was measured with a microplate scintillation counter (Perkin Elmer TopCount) to be the enzyme activity. The human LCE enzyme-inhibitory activity of the test compound was calculated, based on the radioactivity of the DMSO-added well with no test compound therein as a control.

Row | SMILES | IC50 [µM]
1 | COc1ccc(NC(=O)c2cccc(S(=O)(=O)NCCCCC(=O)O)c2)cc1 [Example 44, 5-{[(3-{[(4-methoxyphenyl)amino]carbonyl}phenyl)sulfonyl]amino}pentanoic acid] | 15
2 | COc1ccc(NC(=O)c2cccc(S(=O)(=O)NC(C)(C)C)c2)cc1 [Example 45, 3-[(Tert-butylamino)sulfonyl]-N-(4-methoxyphenyl)benzamide] | 10
3 | COc1cccnc1NC(=O)c1cccc(S(=O)(=O)N2CCOCC2)c1 [Example 47, N-(3-methoxypyridin-2-yl)-3-(morpholin-4-ylsulfonyl)benzamide] | 1.4
4 | COc1cccnc1NC(=O)c1cccc(S(=O)(=O)N2CCC[C@@H]2C)c1 [Example 48, N-(3-methoxypyridin-2-yl)-3-{[(2S)-2-methylpyrrolidin-1-yl]sulfonyl}benzamide] | 0.21
5 | COc1cccnc1NC(=O)c1cccc(S(=O)(=O)N2CC3CCC2C3)c1 (stereo not shown) [Example 49, 3-(2-Azabicyclo [2.2.1]hept-2-ylsulfonyl)-N-(3-methoxypyridin-2-yl)benzamide] | 0.067
6 | COc1cccnc1NC(=O)c1cccc(S(=O)(=O)N2CCCC(c3nc4ccccc4[nH]3)C2)c1 (stereo not shown) [Example 50, 3-{[3-(1H-benzimidazol-2-yl)piperidin-1-yl]sulfonyl}-N-(3-methoxypyridin-2-yl)benzamide] | 0.053
7 | COc1cccnc1NC(=O)c1cccc(S(=O)(=O)N2CC3CCC2CC3)c1 [Example 51, 3-(2-Azabicyclo[2.2.2]oct-2-ylsulfonyl)-N-(3-methoxypyridin-2-yl)benzamide] | 0.33
8 | COc1cccnc1NC(=O)c1cccc(S(=O)(=O)N2C3CCC2CC3)c1 [Example 52, 3-(7-Azabicyclo[2.2.1]hept-7-ylsulfonyl)-N-(3-methoxypyridin-2-yl)benzamide] | 0.93
9 | COc1cccnc1NC(=O)c1cccc(S(=O)(=O)N2C[C@H]3C[C@@H]2CO3)c1 [Example 53, N-(3-methoxypyridin-2-yl)-3-[(1R,4R)-2-oxa-5-azabicyclo[2.2.1]hept-5-ylsulfonyl]benzamide] | 7.6
10 | COc1cccnc1NC(=O)c1cccc(S(=O)(=O)N2C3CCCC2CC3)c1 [Example 54, 3-(8-Azabicyclo[3.2.1]oct-8-ylsulfonyl)-N-(3-methoxypyridin-2-yl)benzamide] | 1.6
11 | CCOC(=O)C1CCCN(S(=O)(=O)c2cccc(C(=O)Nc3ncccc3OC)c2)C1 (stereo not shown) [Example 55, Ethyl 1-[(3-{[(3-methoxypyridin-2-yl)amino]carbonyl}phenyl)sulfonyl]piperidine-3-carboxylate] | 0.31
12 | COc1cccnc1NC(=O)c1cccc(S(=O)(=O)N2CCCC(C(=O)O)C2)c1 (stereo not shown) [Example 56, 1-[(3-{[(3-Methoxypyridin-2-yl)amino]carbonyl}phenyl)sulfonyl]piperidine-3-carboxylic acid] | 3.2
13 | COc1cccnc1NC(=O)c1cccc(S(=O)(=O)N2CCCC(C(N)=O)C2)c1 (stereo not shown) [Example 57, 1-[(3-{[(3-methoxypyridin-2-yl)amino]carbonyl}phenyl)sulfonyl]piperidine-3-carboxamide] | 0.83

Results, then the molecule that gave them:

Row | IC50 [µM] | SMILES
14 | 0.18 | CC(C)c1ccc(NC(=O)c2cccc(S(=O)(=O)N3CCOCC3)c2)cc1 [Example 29, N-(4-isopropylphenyl)-3-(morpholin-4-ylsulfonyl)benzamide]
15 | 0.1 | CC(C)c1ccc(NC(=O)c2cccc(S(=O)(=O)N3CCCCC3C)c2)cc1 (stereo not shown) [Example 30, N-(4-isopropylphenyl)-3-[(2-methylpiperidin-1-yl)sulfonyl]benzamide]
16 | 2.8 | CC(C)c1ccc(NC(=O)c2cccc(S(=O)(=O)N3[C@H](C)CCC[C@@H]3C)c2)cc1 [Example 31, 3-{[(2R,6S)-2,6-dimethylpiperidin-1-yl]sulfonyl}-N-(4-isopropylphenyl)benzamide]
17 | 0.1 | CC(C)c1ccc(NC(=O)c2cccc(S(=O)(=O)N3CCCC(O)C3)c2)cc1 (stereo not shown) [Example 32, 3-[(3-Hydroxypiperidin-1-yl)sulfonyl]-N-(4-isopropylphenyl)benzamide]
18 | 2.6 | CC(C)c1ccc(NC(=O)c2cccc(S(=O)(=O)N3CC[C@@H](F)C3)c2)cc1 [Example 33]
19 | 0.053 | CC(C)c1ccc(NC(=O)c2cccc(S(=O)(=O)N3CCCC(C(N)=O)C3)c2)cc1 (stereo not shown) [Example 34, 1-[(3-{[(4-Isopropylphenyl)amino]carbonyl]phenyl)sulfonyl}piperidine-3-carboxamide]
20 | 0.081 | CC(C)c1ccc(NC(=O)c2cccc(S(=O)(=O)N3CCC[C@@H](O)C3)c2)cc1 [Example 36, 3-{[(3R)-3-hydroxypiperidin-1-yl]sulfonyl}-N-(4-isopropylphenyl)benzamide]
21 | 0.066 | CC(C)c1ccc(NC(=O)c2cccc(S(=O)(=O)N3CCCC(CO)C3)c2)cc1 (stereo not shown) [Example 37, 3-{[3-(hydroxymethyl)piperidin-1-yl]sulfonyl}-N-(4-isopropylphenyl)benzamide]
22 | 1 | CC(C)c1ccc(NC(=O)c2cccc(S(=O)(=O)NC3CCCCC3)c2)cc1 [Example 38, 3-[(Cyclohexylamino)sulfonyl]-N-(4-isopropylphenyl)benzamide]
23 | 5.2 | CC(C)c1ccc(NC(=O)c2cccc(S(=O)(=O)Nc3ccccc3)c2)cc1 [Example 39, 3-(Anilinosulfonyl)-N-(4-isopropylphenyl)benzamide]
24 | 8 | COC[C@H]1CCCN1S(=O)(=O)c1cccc(C(=O)Nc2ccc(C(C)C)cc2)c1 [Example 40, N-(4-Isopropylphenyl)-3-{[(2R)-2-(methoxymethyl)pyrrolidin-1-yl]sulfonyl}benzamide]
25 | 5.1 | COc1ccccc1NC(=O)c1cccc(S(=O)(=O)N2CCC[C@@H](O)C2)c1 [Example 41, 3-{[(3R)-3-hydroxypiperidin-1-yl]sulfonyl}-N-(2-methoxyphenyl)benzamide]
26 | 0.5 | COc1ccccc1NC(=O)c1cccc(S(=O)(=O)N2CCCC(CO)C2)c1 (stereo not shown) [Example 42, 3-{[3-(hydroxymethyl)piperidin-1-yl]sulfonyl}-N-(2-methoxyphenyl)benzamide]
27 | 0.53 | COc1ccccc1NC(=O)c1cccc(S(=O)(=O)N2CCCC(C(N)=O)C2)c1 (stereo not shown) [Example 43, 1-[(3-{[(2-methoxyphenyl)amino]carbonyl]phenyl)sulfonyl}piperidine-3-carboxamide]
28 | 0.79 | COc1ccc(NC(=O)c2cccc(S(=O)(=O)N3CCCCC3)c2)cc1 [Example 46, N-(4-methoxyphenyl)-3-(piperidin-1-ylsulfonyl)benzamide]
29 | 0.16 | CC(C)Oc1ccc(NC(=O)c2cccc(S(=O)(=O)N3CCCC(C(N)=O)C3)c2)nc1 (stereo not shown) [Example 58, 1-[(3-{[(5-Isopropoxypyridin-2-yl)amino]carbonyl}phenyl)sulfonyl]piperidine-3-carboxamide]
30 | 0.11 | CC(C)Oc1ccc(NC(=O)c2cccc(S(=O)(=O)N3CCC[C@H](C(N)=O)C3)c2)nc1 [Example 59, (3S)-1-[(3-{[(5-isopropoxypyridin-2-yl)amino]carbonyl}phenyl)sulfonyl]piperidine-3-carboxamide]
31 | 3 | CC(C)Oc1ccc(NC(=O)c2cccc(S(=O)(=O)N3CCC[C@@H](C(N)=O)C3)c2)nc1 [Example 59′, (3R)-1-[(3-{[(5-isopropoxypyridin-2-yl)amino]carbonyl}phenyl)sulfonyl]piperidine-3-carboxamide]
